Reference: PMC3844902 (British Journal of Cancer, 2013)

Experiment: Safety and tolerability
Type: in vivo, Japanese patients
Details: just after meals, in combination with erlotinib 150 mg QD

O=C1NC(=O)[C@@H](c2cn3c4c(cccc24)CCC3)[C@@H]1c1c[nH]c2ccccc12 [tivantinib]
Recommended phase II dose (RP2D) of tivantinib (Japanese EMs): 360 mg BID
Recommended phase II dose (RP2D) of tivantinib (Japanese PMs): 240 mg BID
